These results are taken from patent US20090004101A1, “Method and Means for Enhanced Pulmonary Drug Delivery” (UNIVERSITY COLLEGE CARDIFF CONSULTANTS LIMITED, priority 2004, published 2009).

Series [1] is described as follows: Pulmonary absorption of human insulin co-administered intratracheally with P2Y receptor agonists to anesthetized rabbits (plasma insulin by radioimmunoassay). The class given is in vivo, New Zealand white rabbits. To be noted: for Effect of the P2Y agonist on t1/2, Cmax and F of insulin administered to the lungs: co-administered with insulin to rabbit lungs, summary in words; for Cmax of insulin / F (bioavailable fraction) of insulin / t1/2 of insulin: rabbit, mean±SD, n=4. The procedure: Briefly, New Zealand white rabbits were anesthetized with Hypnovel (Roche, Welwyn Garden City, UK), 0.3 mg/kg i.v. via cannula in the ear, and Hypnorrn (Janssen Animal Health, Grove, Oxford, UK), 0.1 mg/kg via intramuscular injection. Once intubated with a polyethylene endotracheal tube (i.d. 4 mm, o.d. 5 mm; Portex, UK) coated with a layer of xylocalne gel (Astra Pharmaceuticals, Kings Langley, UK), a second, smaller polyethylene dosing tube was inserted inside the endotracheal tube to the point of the bifurcation of the trachea.

The conditions of series [2]: EDTA co-administered; cited from earlier work.
Setting [3] is: insulin 10 U/kg intratracheal with Up4U 0.2 mg (2.0 mg/mL).
Setting [4] is: insulin 10 U/kg intratracheal with Up4U 0.62 mg (6.2 mg/mL).

In the case of `O=c1ccn([C@@H]2O[C@H](COP(=O)(O)OP(=O)(O)OP(=O)(O)O)[C@@H](O)[C@H]2O)c(=O)[nH]1` [UTP, uridine 5′-triphosphate], the “Effect of the P2Y agonist on t1/2, Cmax and F of insulin administered to the lungs” value in series [1] was “increase the half life (t1/2), maximal plasma concentration (Cmax) and the overall bioavailable fraction (F) of insulin”. The Cmax of insulin in series [1] (insulin 10 U/kg intratracheal with UTP 0.34 mg (3.4 mg/mL)) is given as 828 ± 42.4 μU/mL; in series [1] (insulin 10 U/kg intratracheal with UTP 1.5 mg (15 mg/mL)) it was 1515 ± 297 μU/mL.

For `O=c1ccn([C@@H]2O[C@H](COP(=O)(O)OP(=O)(O)OP(=O)(O)OP(=O)(O)OC[C@H]3O[C@@H](n4ccc(=O)[nH]c4=O)[C@H](O)[C@@H]3O)[C@@H](O)[C@H]2O)c(=O)[nH]1` [Up4U, P^1,P^4-di(uridine 5′-)tetraphosphate], in series [1], the “Effect of the P2Y agonist on t1/2, Cmax and F of insulin administered to the lungs” value was “increase the half life (t1/2), maximal plasma concentration (Cmax) and the overall bioavailable fraction (F) of insulin”. Also, in series [1] (setting [3]), the Cmax of insulin is 531 ± 89.5 μU/mL, the “F (bioavailable fraction) of insulin” value came out at 8.07 ± 3.40% and the t1/2 of insulin stood at 1.33 ± 0.7102 h. Further, in series [1] (setting [4]), the Cmax of insulin stood at 655 ± 46.17 μU/mL, the “F (bioavailable fraction) of insulin” value is on record as 5.47 ± 1.03% and the t1/2 of insulin was determined as 0.798 ± 0.0372 h.

Regarding `O=C(O)CN(CCN(CC(=O)O)CC(=O)O)CC(=O)O` [EDTA], in series [2], the “Effect on uptake of calcitonin following intratracheal administration to the lungs” value is “did increase”.
